From US20200247849A1, “PEPTIDE AGONISTS AND ANTAGONISTS OF TLR4 ACTIVATION” (PEPTICOM LTD, priority 2016, published 2020)

Tests used:
Assay type in all cases: cell-based
[1] = system: TLR4 with MD2 or CD14 co-receptor; test: Reporter gene (SEAP) PAMP assay in NIH3T3 cells expressing TLR4 with MD2 or CD14 co-receptor; details: summary of FIGS. 6A-6V
Text: FIGS. 6A-6V show the dose response inhibitor/activator effects of the designed peptides using a reporter gene assay. The reporter gene assay is composed of NIH3T3 cells transfected with either MD2 or CD14 along with TLR4 and the NF-κB-inducible reporter gene Secreted Alkaline Phosphatase (SEAP) to monitor TLR4 activation (Burger-[…] al. 2010, A new cell-based innate immune receptor assay for the examination of receptor activity, ligand specificity, signaling pathways and the detection of pyrogens. […] The receptors are coupled to for the detection of inhibitory activity, cells were treated with the peptide prior to exposure to LPS and the response to LPS is measured at variable peptide doses (as labeled). The detection of cell activation was performed using the peptide alone, at variable doses, as indicated in the respective graphs. The following presents in more details the experimental procedures. Experimental setup: The cell-based Assay is performed with different NIH3T3 reporter cell lines (NIH 3T3 PRR SEAP-TLR4/CD14 or -TLR4/MD2) and the control cell line NIH 3T3 SEAP. The NIH3T3 SEAP cell line is used in order to determine the background of the alkaline phosphatase expression. It is a cell line stably transfected with only the reporter gene plasmid. For each assay a vial of the master cell bank is revitalized and seeded in a standard cell culture flask (75 cm^2 T-Flask) at day one. Cells are cultured in 20 ml culture media (DMEM supplemented with 10% FCS (heat inactivated), 50 units/ ml penicillin, 0.05 mg/ ml streptomycin and 2 mmol/ L L-glutamine). The cells are cultured at 37° C. in a 5% CO2 humidified atmosphere. At Day 1: For the PAMP Assay cells are seeded in a 96-well plate at a density of 0.3.10^5 cells/well in a final volume of 100 μl culture media (DMEM, 10% FCS (heat inactivated)). To ensure equal culture conditions the 96-well cell culture plates are placed side by side and cultivated in a humidified CO2 incubator (37° C. and 5% CO2). […] After a cultivation period of 24 h the media is removed and replaced with the respective volume of fresh media (DMEM, 0.5% FCS (heat inactivated)).The lyophilized peptides are stored in a freezer at -20° C. upon arrival. For the experiments they are dissolved in DMSO (to the highest possible concentration). Before opening the peptides are allowed to equilibrate to room temperature (in order to reduce the uptake of moisture). For each experiment the stock solution is diluted in DMEM to the appropriate working concentration. […] Sonication was also used to help dissolve the peptides. Immediately after replacing the media, the diluted peptides are applied in a serial dilution to the cells and directly after that the agonist is added to the cells. After adding peptide and […] the final volume in each well of a 96 well plate amounts 100 μl/well. The culture medium containing 0.5% FCS is used as a negative reference item. The induction is performed for 18 h at 37° C. and 5% CO2. At Day 3: To determine the final SEAP value, 50 μl of the supernatant is carefully transferred in a new 96-well plate (Greiner-F-plate) and 50 μl of the substrate (pNPP; p-nitrophenyl phosphate) is added. SEAP catalyzes the hydrolysis of pNPP to the final product para-nitrophenol (yellow) which can be detected by a photometric analysis using an UV-VIS reader at 405 nm. […] The results of FIGS. 6A-6V with respect to peptide activity are summarized in Table 1 above with respect to the type of effect of the respective peptide (activation/inhibition) and with respect to the corresponding co-receptor (MD2/CD14). Data concerning SEQ ID No. 22 with respect to co-receptor CD14 is in preparation.

[2] = system: primary mouse macrophages (expressing TLR4, MD2 and CD14); test: TNF-a release from primary mouse macrophages exposed to LPS; details: FIG. 7
Text: (§1) The top graph presents TNF-a release from primary mouse macrophages exposed to LPS treated with either peptide SEQ ID No. 9 or a control peptide while the bottom graph presents TNF-a release from primary mouse macrophages exposed to PAM3 treated with either peptide SEQ ID No. 9 or a control peptide. […] This method had been previously described (Lerner et al. 2011, Heparanase powers a chronic inflammatory circuit that promotes colitis-associated tumorigenesis in mice. J Clin Invest. 121(5): 1709-1721).

[3] = target: T1, TLR1/2 (Mus musculus, UniProt Q9EPQ1+Q9QUN7); test: TNF-a release from primary mouse macrophages exposed to PAM3; details: primary mouse macrophages exposed to PAM3, FIG. 7
T1 construct: endogenous in cells; host or cells: primary mouse macrophages
T1 sequence (Q9EPQ1 26-795): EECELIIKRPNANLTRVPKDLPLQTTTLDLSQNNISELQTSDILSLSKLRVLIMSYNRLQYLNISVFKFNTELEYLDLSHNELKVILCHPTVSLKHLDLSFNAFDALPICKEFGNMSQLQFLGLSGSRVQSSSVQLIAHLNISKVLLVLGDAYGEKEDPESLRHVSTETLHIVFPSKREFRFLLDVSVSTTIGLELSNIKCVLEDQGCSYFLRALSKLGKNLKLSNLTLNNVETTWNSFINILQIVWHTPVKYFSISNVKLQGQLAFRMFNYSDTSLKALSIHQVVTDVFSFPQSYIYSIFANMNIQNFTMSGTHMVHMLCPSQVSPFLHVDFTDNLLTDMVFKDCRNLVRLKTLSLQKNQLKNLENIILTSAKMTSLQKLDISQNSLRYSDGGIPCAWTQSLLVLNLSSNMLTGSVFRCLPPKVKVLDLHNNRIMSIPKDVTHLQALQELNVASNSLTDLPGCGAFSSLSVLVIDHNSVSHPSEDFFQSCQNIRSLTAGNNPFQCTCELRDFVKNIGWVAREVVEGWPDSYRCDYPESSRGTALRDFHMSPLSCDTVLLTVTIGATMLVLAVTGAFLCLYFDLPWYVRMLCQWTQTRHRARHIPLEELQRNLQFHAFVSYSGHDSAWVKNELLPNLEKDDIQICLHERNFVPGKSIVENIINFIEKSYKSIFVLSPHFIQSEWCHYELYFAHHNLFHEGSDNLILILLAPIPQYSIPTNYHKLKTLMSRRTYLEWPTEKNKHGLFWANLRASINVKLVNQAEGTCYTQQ
T1 sequence (Q9QUN7 25-784): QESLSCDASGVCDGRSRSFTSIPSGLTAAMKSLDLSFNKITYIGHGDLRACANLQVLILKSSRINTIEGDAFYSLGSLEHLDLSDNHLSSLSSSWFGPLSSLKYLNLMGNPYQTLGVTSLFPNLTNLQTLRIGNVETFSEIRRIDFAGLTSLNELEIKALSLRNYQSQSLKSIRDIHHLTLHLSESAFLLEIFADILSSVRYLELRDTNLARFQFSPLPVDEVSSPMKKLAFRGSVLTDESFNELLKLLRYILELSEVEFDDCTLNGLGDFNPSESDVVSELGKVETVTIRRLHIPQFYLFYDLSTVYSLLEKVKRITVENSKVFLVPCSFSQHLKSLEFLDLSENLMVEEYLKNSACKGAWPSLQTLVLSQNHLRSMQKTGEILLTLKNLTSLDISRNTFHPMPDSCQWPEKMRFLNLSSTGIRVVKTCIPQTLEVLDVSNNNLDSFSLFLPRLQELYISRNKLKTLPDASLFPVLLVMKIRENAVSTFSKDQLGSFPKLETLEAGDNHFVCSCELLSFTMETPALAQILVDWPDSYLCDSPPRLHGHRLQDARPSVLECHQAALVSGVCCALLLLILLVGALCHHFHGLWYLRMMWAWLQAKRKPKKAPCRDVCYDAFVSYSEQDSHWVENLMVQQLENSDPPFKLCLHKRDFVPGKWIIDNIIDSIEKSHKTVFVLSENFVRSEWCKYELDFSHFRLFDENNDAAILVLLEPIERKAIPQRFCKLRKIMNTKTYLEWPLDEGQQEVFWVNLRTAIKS
Text: as §1

effect on PAM3 induced TNF-a release [3]: no significant effect
Sequence: ILFMGMKWL (Inhibitor) [SEQ ID No. 9]
Co-Receptor/s ([1]; co-receptor (MD2/CD14) via which the effect occurs): MD2
Activity ([1]; type of effect (activation/inhibition) on TLR4): Inhibitor
effect on LPS-induced TNF-a release [2]: inhibitory effect
